Measurements: patent US20020165208A1, “Compositions and methods relating to hypertension” (priority 2000, published 2002)
Like-named read-outs stand apart in the source and are kept apart here.

Key:
recombinant Cyp 4a14 = biological target: T1, recombinant Cyp 4a14 (Mus musculus, UniProt O35728); test: Substrate oxidation by purified recombinant Cyp 4a14; assay type: biochemical
T1 construct: A KpnI-XhoI cDNA fragment (1.9 kb) was subcloned into the pBlueBac IV vector; made in house; host or cells: Sf9 insect cells / baculovirus (pBlueBac IV, Invitrogen)
T1 sequence (O35728 5-507): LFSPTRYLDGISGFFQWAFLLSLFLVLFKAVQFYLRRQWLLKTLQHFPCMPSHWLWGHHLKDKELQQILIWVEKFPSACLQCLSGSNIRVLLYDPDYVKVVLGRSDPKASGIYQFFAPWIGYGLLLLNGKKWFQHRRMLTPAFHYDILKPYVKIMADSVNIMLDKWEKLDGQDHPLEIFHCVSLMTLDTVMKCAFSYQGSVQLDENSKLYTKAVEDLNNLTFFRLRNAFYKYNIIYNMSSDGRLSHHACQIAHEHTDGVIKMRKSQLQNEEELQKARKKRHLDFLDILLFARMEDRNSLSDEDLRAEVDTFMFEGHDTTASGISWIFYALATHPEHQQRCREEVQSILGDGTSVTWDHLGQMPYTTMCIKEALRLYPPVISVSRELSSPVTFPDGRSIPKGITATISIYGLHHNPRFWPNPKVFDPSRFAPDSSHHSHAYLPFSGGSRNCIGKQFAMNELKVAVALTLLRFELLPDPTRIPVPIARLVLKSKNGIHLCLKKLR
Protocol: (§1) Kidney microsomes were isolated from treated and nontreated Cyp 4a14 (+/+) and (−/−) mice (21), suspended (1-2 mg of protein/ml) in 0.05 M Tris·Cl (pH 7.4) containing 0.15 M KCl and 10 mM MgCl2, and incubated with [1^14C]AA or lauric acid (100 μM, 5 μCi/μmol each) and NADPH (1 mM) at 35° C. Reaction products were resolved and quantified as described (21). For antibody inhibition, microsomes were incubated (30 min at 22° C.) with rabbit anti-CYP 4A2 or nonimmune serum (0.1-1 mg of protein/ml) before enzymatic analysis. Recombinant Cyp 4a14 (0.1-1 μM) was incubated with [1-^14C]-labeled AA or lauric acid in the presence of purified P450 reductase, cytochrome b5, dilauroylphosphatidylcholine, and NADPH (1 mM), as described (15, 21). Urine collections (8-12 h) were incubated at 35° C. for 2-3 h with -glucoronidase (22) (Sigma) (1 mg/ml) and, after purification, the levels of 19- and 20-HETE were quantified by mass spectroscopy (22).

renal vasculature = settings: synthetic 20-HETE; cited from earlier work
rat CYP 4A1 = biological target: T2, rat CYP 4A1 (Rattus norvegicus, UniProt P08516); test: TST oxidation by rat CYP 4A1
T2 sequence (P08516 1-509): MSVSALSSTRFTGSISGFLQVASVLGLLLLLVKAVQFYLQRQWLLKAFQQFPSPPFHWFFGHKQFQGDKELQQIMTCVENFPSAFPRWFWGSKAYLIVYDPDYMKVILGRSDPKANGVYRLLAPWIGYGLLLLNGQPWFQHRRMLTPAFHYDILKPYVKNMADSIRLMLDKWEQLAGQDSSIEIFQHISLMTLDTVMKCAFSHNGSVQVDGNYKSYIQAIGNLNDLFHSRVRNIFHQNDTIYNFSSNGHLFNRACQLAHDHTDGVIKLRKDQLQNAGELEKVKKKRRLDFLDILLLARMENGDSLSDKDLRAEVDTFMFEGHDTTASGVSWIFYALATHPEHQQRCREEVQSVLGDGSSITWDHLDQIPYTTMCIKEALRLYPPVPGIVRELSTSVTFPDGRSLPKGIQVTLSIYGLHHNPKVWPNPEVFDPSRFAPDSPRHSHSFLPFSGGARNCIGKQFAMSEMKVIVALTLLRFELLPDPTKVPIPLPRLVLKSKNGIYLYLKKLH

rat CYP 4A2 = biological target: T3, rat CYP 4A2 (Rattus norvegicus, UniProt P20816); test: TST oxidation by rat CYP 4A2
T3 sequence (P20816 5-504): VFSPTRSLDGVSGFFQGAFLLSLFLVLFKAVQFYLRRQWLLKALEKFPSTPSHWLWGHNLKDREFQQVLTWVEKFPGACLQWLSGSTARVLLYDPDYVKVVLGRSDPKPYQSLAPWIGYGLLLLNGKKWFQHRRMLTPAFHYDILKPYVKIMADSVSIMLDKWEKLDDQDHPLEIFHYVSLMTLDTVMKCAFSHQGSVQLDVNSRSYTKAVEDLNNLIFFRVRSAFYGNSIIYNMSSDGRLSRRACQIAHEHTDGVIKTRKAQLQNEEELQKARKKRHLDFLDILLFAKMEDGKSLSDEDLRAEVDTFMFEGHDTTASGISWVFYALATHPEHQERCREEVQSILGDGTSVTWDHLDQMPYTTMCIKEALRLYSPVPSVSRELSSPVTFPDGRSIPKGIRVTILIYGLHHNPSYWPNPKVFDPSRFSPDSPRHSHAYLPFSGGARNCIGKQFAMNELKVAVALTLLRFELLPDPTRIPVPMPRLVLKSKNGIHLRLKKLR

[1] = Plasma androgen levels (TST and DHT) by RIA in castrated, pellet-implanted mice; settings: for concentration at 10 days: male, mouse, in vivo, 5 mg DHT/day, Plasma DHT level, DHT-releasing pellets, ten days after implantation
[2] = system: Cyp 4a14 (+/+) and (−/−) mice; test: Arterial blood pressure of conscious mice by right carotid artery catheter; assay type: in vivo, mouse; settings: for Effect on hypertensive phenotype (blood pressure): castrated Cyp 4a14 (−/−) mice, androgen-releasing pellets
Protocol: The arterial blood pressures of conscious 12- to 14-week-old mice were measured by means of a right carotid artery catheter (300-500 μm OD). After surgery (24-48 h), animals were allowed to become familiar with the environment and, after stabilization, their arterial blood pressures were monitored continuously for at least 30 min by using a pressure transducer. […] For measurements of afferent arteriolar diameter, male kidneys were perfused in vitro with a physiological salt solution supplemented with a mixture of L-amino acids (23), and the juxtamedullary vasculature was monitored continuously by videomicroscopy, as described (23). The relationship between afferent arteriolar diameter and perfusion pressure was determined at 80, 120, and 160 mm Hg. Perfusion pressure changes were followed by a 3-min equilibration before steady-state diameter measurements (23).

Cyp 4a12 transcripts = settings: DHT-treated castrated Cyp 4a14 (−/−) mice
Protocol: Top frame: Samples of total RNA (5-10 μg each) from the kidneys of control (A), castrated (B), castrated and DHT-treated (C) males or from control (D) and DHT-treated (E) females were fractionated by agar electrophoresis, transferred to nitrocellulose membranes, and hybridized to ^32P-labeled DNA probes (400-500 bp) coding for segments of the 3′-untranslated end of the Cyp 4a10, 4a12, and 4a14 cDNAs. After high-stringency washes, the membranes were exposed to x-ray films for 4, 2, or 21 h for male Cyp 4a10, 4a12, and 4a14, respectively, and 6, 21, or 12 h for female Cyp 4a10, 4a12, and 4a14, respectively. RNA loadings were normalized by using a -actin cDNA probe. […] Bottom frame: Dehydrated paraffin sections from the kidneys of control (A and A′), castrated (B and B′) and DHT-treated castrated male mice (C and C′) were hybridized to [^35S]-labeled riboprobes encoding 3′-end untranslated segments of the Cyp 4a12 cDNA. After washing, RNase A treatment, and dehydration, the sections were dipped in emulsion (IlfordK5; Knutsford, Cheshire, U.K.), exposed for 4-5 days at 4° C., and developed by using D-19 (Kodak). Slides were counterstained with hematoxylin. Photomicrographs were obtained by using either dark-field (3×) (A-C) or bright-field (100×) (A′, B′, and C′) optics.

[3] = system: Arachidonic acid ω-hydroxylase of mouse kidney microsomes; settings: DHT pellets
Protocol: as §1

In the case of `CCCCCCCCCCCC(=O)O` [lauric acid], the “Lauric acid oxidation rate” value (recombinant Cyp 4a14; purified recombinant Cyp 4a14) is reported as 4.0±0.8 nmol product/min/nmol of P450.
For `CCCCC/C=C\C/C=C\C/C=C\C/C=C\CCCC(=O)O` [AA, arachidonic acid], the AA metabolism (recombinant Cyp 4a14; purified recombinant Cyp 4a14, even with cytochrome b5, excess P450 reductase, GSH, EDTA, and/or sodium cholate) was “did not metabolize AA”.
In the case of `O=C(O)CCC/C=C\C/C=C\C/C=C\C/C=C\CCCCCO` [20-HETE, 20-hydroxyarachidonic acid], the Renal vasoconstrictor activity (renal vasculature) is listed as “powerful renal vasoconstrictor”.
In the case of `C[C@]12CC[C@H]3[C@@H](CCC4=CC(=O)CC[C@@]43C)[C@@H]1CC[C@@H]2O` [TST, testosterone], the TST oxidation (rat CYP 4A1) is reported as “neither recombinant Cyp 4a14 nor rat CYPs 4A1 or 4A2 catalyzed TST oxidation”, the TST oxidation (rat CYP 4A2) is reported as “neither recombinant Cyp 4a14 nor rat CYPs 4A1 or 4A2 catalyzed TST oxidation” and the “Plasma TST level” value ([1]; castrated Cyp 4a14 (−/−) mice given TST, n=7) is reported as 1.8±0.04 ng TST/ml. For the same compound, the “Effect on hypertensive phenotype (blood pressure)” value [2] was “restored the hypertensive phenotype”.
With `C[C@]12CCC(=O)C[C@@H]1CC[C@@H]1[C@@H]2CC[C@]2(C)[C@@H](O)CC[C@@H]12` [DHT, 5-dihydrotestosterone] the concentration at 10 days ([1]; castrated male Cyp 4a14 (+/+) mice) was 2.64 ± 0.3 ng/mL, the concentration at 10 days ([1]; castrated male Cyp 4a14 (−/−) mice) was 2.01 ± 0.1 ng/mL and the “Cyp 4a12 transcript expression in kidney” value (Cyp 4a12 transcripts) was “abundant and selective expression of 4a 12 transcripts in the renal cortex”. For the same compound, the “(20-HETE) % of total” value ([3]; castrated male (+/+) mice) was 82 % of total, the ω-Hydroxylase rate ([3]; castrated male (+/+) mice) was 228 ± 35 picomoles of product formed per minute per milligram of microsomal protein and the “(20-HETE) % of total” value ([3]; castrated male (−/−) mice) was 82 % of total. The ω-Hydroxylase rate ([3]; castrated male (−/−) mice) was 225 ± 23 picomoles of product formed per minute per milligram of microsomal protein, the “(20-HETE) % of total” value ([3]; female (+/+) mice) was 76 % of total and the ω-Hydroxylase rate ([3]; female (+/+) mice) was 140 ± 3 picomoles of product formed per minute per milligram of microsomal protein. The “(20-HETE) % of total” value ([3]; female (−/−) mice) was 77 % of total, the ω-Hydroxylase rate ([3]; female (−/−) mice) was 164 ± 3 picomoles of product formed per minute per milligram of microsomal protein and the MABP ([2]; DHT-treated castrated Cyp 4a14 (+/+) mice, n=10) was 137±4 mm of Hg. The MABP ([2]; DHT-treated control (noncastrated) Cyp 4a14 (+/+) mice, n=10) was 140±5 mm of Hg, the MABP ([2]; DHT-treated female Cyp 4a14 (+/+) mice) was 132±4 mm of Hg and the MABP ([2]; DHT-treated female Cyp 4a14 (−/−) mice) was 133±4 mm of Hg. The “Effect on hypertensive phenotype (blood pressure)” value [2] was “restored the hypertensive phenotype”.
